Test results taken from PubChem BioAssay (NCI).
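Each compound was tested at five concentrations against cells in 96-well plates for 48 hours. TGI marks complete inhibition of growth.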

Legend:
Test in all cases: growth of human tumour cells (NCI), 48 h
786-0 renal = tested on: 786-0 renal
A498 renal = tested on: A498 renal
A549 NSCLC = tested on: A549 NSCLC
ACHN renal = tested on: ACHN renal
CAKI-1 renal = tested on: CAKI-1 renal
CCRF-CEM leukemia = tested on: CCRF-CEM leukemia
COLO 205 colon = tested on: COLO 205 colon
DLD-1 colon = tested on: DLD-1 colon
DMS 114 small cell lung = tested on: DMS 114 small cell lung
DMS 273 small cell lung = tested on: DMS 273 small cell lung
HCC-2998 colon = tested on: HCC-2998 colon
HCT-116 colon = tested on: HCT-116 colon
HCT-15 colon = tested on: HCT-15 colon
HL-60(TB) leukemia = tested on: HL-60(TB) leukemia
HOP-62 NSCLC = tested on: HOP-62 NSCLC
HOP-92 NSCLC = tested on: HOP-92 NSCLC
HT29 colon = tested on: HT29 colon
IGROV1 ovarian = tested on: IGROV1 ovarian
K-562 leukemia = tested on: K-562 leukemia
KM12 colon = tested on: KM12 colon
LOX IMVI melanoma = tested on: LOX IMVI melanoma
LXFL 529 NSCLC = tested on: LXFL 529 NSCLC
M14 melanoma = tested on: M14 melanoma
M19-MEL melanoma = tested on: M19-MEL melanoma
MALME-3M melanoma = tested on: MALME-3M melanoma
MOLT-4 leukemia = tested on: MOLT-4 leukemia
NCI-H23 lung = tested on: NCI-H23 lung
NCI-H460 lung = tested on: NCI-H460 lung
NCI-H522 lung = tested on: NCI-H522 lung
OVCAR-3 ovarian = tested on: OVCAR-3 ovarian
OVCAR-5 ovarian = tested on: OVCAR-5 ovarian
OVCAR-8 ovarian = tested on: OVCAR-8 ovarian
RXF-631 renal = tested on: RXF-631 renal
SF-268 CNS = tested on: SF-268 CNS
SF-295 CNS = tested on: SF-295 CNS
SF-539 CNS = tested on: SF-539 CNS
SK-MEL-2 melanoma = tested on: SK-MEL-2 melanoma
SK-MEL-28 melanoma = tested on: SK-MEL-28 melanoma
SK-OV-3 ovarian = tested on: SK-OV-3 ovarian
SN12C renal = tested on: SN12C renal
SNB-19 CNS = tested on: SNB-19 CNS
SNB-75 CNS = tested on: SNB-75 CNS
SNB-78 CNS = tested on: SNB-78 CNS
SW-620 colon = tested on: SW-620 colon
TK-10 renal = tested on: TK-10 renal
U251 CNS = tested on: U251 CNS
UACC-257 melanoma = tested on: UACC-257 melanoma
UACC-62 melanoma = tested on: UACC-62 melanoma
UO-31 renal = tested on: UO-31 renal
XF 498 CNS = tested on: XF 498 CNS
EKVX NSCLC = tested on: EKVX NSCLC
HOP-18 NSCLC = tested on: HOP-18 NSCLC
NCI-H226 lung = tested on: NCI-H226 lung
RPMI-8226 leukemia = tested on: RPMI-8226 leukemia
RXF 393 renal = tested on: RXF 393 renal
SK-MEL-5 melanoma = tested on: SK-MEL-5 melanoma
KM20L2 colon = tested on: KM20L2 colon
OVCAR-4 ovarian = tested on: OVCAR-4 ovarian
SR leukemia = tested on: SR leukemia

Measured: TGI

Nc1nc2c(ncn2C2OC(CO)C(O)C2N)c(=O)[nH]1 (stereo not drawn)
not listed: EKVX NSCLC | HOP-18 NSCLC | NCI-H226 lung | RPMI-8226 leukemia | RXF 393 renal | SK-MEL-5 melanoma | KM20L2 colon | OVCAR-4 ovarian | SR leukemia
> 100 µM: all other assays above

CC(=O)NS(=O)(=O)c1ccc(NC(=O)COC(=O)c2cccc3c(=O)c4ccccc4[nH]c23)cc1
not listed: A498 renal | CAKI-1 renal | DLD-1 colon | HCC-2998 colon | HOP-92 NSCLC | LXFL 529 NSCLC | OVCAR-5 ovarian | RXF-631 renal | SF-268 CNS | SNB-78 CNS | KM20L2 colon | OVCAR-4 ovarian | SR leukemia
> 100 µM: all other assays above

Cc1ccc(S(=O)(=O)N(/N=C(\N)Oc2ccc(Cl)cc2)C(=N)Oc2ccc(Cl)cc2)cc1
not listed: RXF-631 renal | RPMI-8226 leukemia
> 100 µM: all other assays above
